Test results from ChEMBL document CHEMBL1201862, “PubChem BioAssay data set” (2004).
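Cells were grown in 96-well plates and exposed to each compound for 48 hours at five concentrations; endpoints were interpolated linearly between bracketing concentrations, or set to the highest concentration if not reached. GI50 is the concentration that inhibits growth by half.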 Active and inactive are the calls of the source. Cut-off read from the data, not from the text of the source: active = GI50 up to about 1.1 µM and inactive = higher.

Tests used:
Assay in all cases: NCI anticancer screen, dose series, 48 h
UACC-62 = tested on: UACC-62
SNB-75 = tested on: SNB-75
SK-MEL-2 = tested on: SK-MEL-2
SW-620 = tested on: SW-620
UO-31 = tested on: UO-31
HOP-62 = tested on: HOP-62
HT-29 = tested on: HT-29
MDA-N = tested on: MDA-N
RXF 393 = tested on: RXF 393
UACC-257 = tested on: UACC-257
DU-145 = tested on: DU-145
HCT-116 = tested on: HCT-116
COLO 205 = tested on: COLO 205
OVCAR-8 = tested on: OVCAR-8
CAKI-1 = tested on: CAKI-1
SF-539 = tested on: SF-539
NCI/ADR-RES = tested on: NCI/ADR-RES
HCT-15 = tested on: HCT-15
BT-549 = tested on: BT-549
OVCAR-3 = tested on: OVCAR-3
SN12C = tested on: SN12C
PC-3 = tested on: PC-3
MDA-MB-435 = tested on: MDA-MB-435
786-0 = tested on: 786-0
ACHN = tested on: ACHN
A498 = tested on: A498
KM12 = tested on: KM12
HOP-92 = tested on: HOP-92
HCC 2998 = tested on: HCC 2998
M14 = tested on: M14
LOX IMVI = tested on: LOX IMVI
OVCAR-4 = tested on: OVCAR-4
T47D = tested on: T47D
SK-MEL-28 = tested on: SK-MEL-28
SK-MEL-5 = tested on: SK-MEL-5
CCRF-CEM = tested on: CCRF-CEM
Malme-3M = tested on: Malme-3M
NCI-H522 = tested on: NCI-H522
NCI-H23 = tested on: NCI-H23
IGROV-1 = tested on: IGROV-1
NCI-H226 = tested on: NCI-H226
SK-OV-3 = tested on: SK-OV-3
NCI-H460 = tested on: NCI-H460
MOLT-4 = tested on: MOLT-4
SNB-19 = tested on: SNB-19
OVCAR-5 = tested on: OVCAR-5
HL-60 = tested on: HL-60
SR = tested on: SR
MDA-MB-231 = tested on: MDA-MB-231
Hs-578T = tested on: Hs-578T
RPMI-8226 = tested on: RPMI-8226
TK-10 = tested on: TK-10
EKVX = tested on: EKVX
K562 = tested on: K562
A549 = tested on: A549
MCF7 = tested on: MCF7
SF-268 = tested on: SF-268
SF-295 = tested on: SF-295
U-251 = tested on: U-251

## COC(=O)C1=C(OC(=O)/C(=C/c2ccccc2)c2ccc(Cl)cc2)C(C(=O)OC)[C@@]2(O)[C@@H](C(=O)OC)[C@H](C)C[C@@H]1[C@@H]2C(=O)OC (some centres not stated)
UACC-62
  GI50: > 100 µM (inactive)
SNB-75
  GI50: > 100 µM (inactive)
SK-MEL-2
  GI50: > 100 µM (inactive)
SW-620
  GI50: > 100 µM (inactive)
UO-31
  GI50: > 100 µM (inactive)
HOP-62
  GI50: > 100 µM (inactive)
HT-29
  GI50: > 100 µM (inactive)
MDA-N
  GI50: > 100 µM (inactive)
RXF 393
  GI50: > 100 µM (inactive)
UACC-257
  GI50: > 100 µM (inactive)
DU-145
  GI50: > 100 µM (inactive)
HCT-116
  GI50: > 100 µM (inactive)
COLO 205
  GI50: > 100 µM (inactive)
OVCAR-8
  GI50: > 100 µM (inactive)
CAKI-1
  GI50: > 100 µM (inactive)
SF-539
  GI50: > 100 µM (inactive)
NCI/ADR-RES
  GI50: > 100 µM (inactive)
HCT-15
  GI50: > 100 µM
BT-549
  GI50: > 100 µM (inactive)
OVCAR-3
  GI50: > 100 µM (inactive)
SN12C
  GI50: > 100 µM (inactive)
PC-3
  GI50: > 100 µM (inactive)
MDA-MB-435
  GI50: > 100 µM (inactive)
786-0
  GI50: > 100 µM (inactive)
ACHN
  GI50: > 100 µM (inactive)
A498
  GI50: > 100 µM (inactive)
KM12
  GI50: > 100 µM (inactive)
HOP-92
  GI50: 29.1 µM (inactive)
HCC 2998
  GI50: > 100 µM (inactive)
M14
  GI50: > 100 µM (inactive)
LOX IMVI
  GI50: > 100 µM (inactive)
OVCAR-4
  GI50: > 100 µM (inactive)
T47D
  GI50: > 100 µM (inactive)
SK-MEL-28
  GI50: > 100 µM (inactive)
SK-MEL-5
  GI50: > 100 µM (inactive)
CCRF-CEM
  GI50: > 100 µM (inactive)
Malme-3M
  GI50: > 100 µM (inactive)
NCI-H522
  GI50: > 100 µM (inactive)
NCI-H23
  GI50: > 100 µM (inactive)
IGROV-1
  GI50: > 100 µM (inactive)
NCI-H226
  GI50: > 100 µM (inactive)
SK-OV-3
  GI50: > 100 µM (inactive)
NCI-H460
  GI50: > 100 µM (inactive)
MOLT-4
  GI50: 79.3 µM (inactive)
SNB-19
  GI50: > 100 µM (inactive)
OVCAR-5
  GI50: > 100 µM (inactive)
HL-60
  GI50: > 100 µM (inactive)
SR
  GI50: > 100 µM (inactive)
MDA-MB-231
  GI50: > 100 µM (inactive)
Hs-578T
  GI50: > 100 µM (inactive)
RPMI-8226
  GI50: > 100 µM (inactive)
TK-10
  GI50: > 100 µM (inactive)
EKVX
  GI50: > 100 µM (inactive)
K562
  GI50: 2.37 µM (inactive)
A549
  GI50: > 100 µM (inactive)
MCF7
  GI50: > 100 µM (inactive)
SF-268
  GI50: > 100 µM (inactive)
SF-295
  GI50: > 100 µM (inactive)
U-251
  GI50: > 100 µM (inactive)

## CCn1c(=O)c2cn[nH]c2n(C)c1=O
UACC-62
  GI50: > 100 µM (inactive)
SNB-75
  GI50: > 100 µM (inactive)
SK-MEL-2
  GI50: > 100 µM (inactive)
SW-620
  GI50: > 100 µM (inactive)
UO-31
  GI50: > 100 µM (inactive)
HOP-62
  GI50: > 100 µM (inactive)
HT-29
  GI50: > 100 µM (inactive)
MDA-N
  GI50: > 100 µM (inactive)
RXF 393
  GI50: > 100 µM (inactive)
UACC-257
  GI50: > 100 µM (inactive)
DU-145
  GI50: > 100 µM (inactive)
HCT-116
  GI50: > 100 µM (inactive)
COLO 205
  GI50: > 100 µM (inactive)
OVCAR-8
  GI50: > 100 µM (inactive)
CAKI-1
  GI50: > 100 µM (inactive)
SF-539
  GI50: > 100 µM (inactive)
NCI/ADR-RES
  GI50: > 100 µM (inactive)
HCT-15
  GI50: > 100 µM
BT-549
  GI50: > 100 µM (inactive)
OVCAR-3
  GI50: > 100 µM (inactive)
SN12C
  GI50: > 100 µM (inactive)
PC-3
  GI50: > 100 µM (inactive)
MDA-MB-435
  GI50: > 100 µM (inactive)
786-0
  GI50: > 100 µM (inactive)
ACHN
  GI50: > 100 µM (inactive)
A498
  GI50: > 100 µM (inactive)
KM12
  GI50: > 100 µM (inactive)
HOP-92
  GI50: > 100 µM (inactive)
HCC 2998
  GI50: > 100 µM (inactive)
M14
  GI50: > 100 µM (inactive)
LOX IMVI
  GI50: > 100 µM (inactive)
OVCAR-4
  GI50: > 100 µM (inactive)
T47D
  GI50: > 100 µM (inactive)
SK-MEL-28
  GI50: > 100 µM (inactive)
SK-MEL-5
  GI50: > 100 µM (inactive)
CCRF-CEM
  GI50: > 100 µM (inactive)
Malme-3M
  GI50: > 100 µM (inactive)
NCI-H522
  GI50: > 100 µM (inactive)
NCI-H23
  GI50: > 100 µM (inactive)
IGROV-1
  GI50: 66.7 µM (inactive)
NCI-H226
  GI50: > 100 µM (inactive)
SK-OV-3
  GI50: > 100 µM (inactive)
NCI-H460
  GI50: > 100 µM (inactive)
MOLT-4
  GI50: > 100 µM (inactive)
SNB-19
  GI50: > 100 µM (inactive)
OVCAR-5
  GI50: > 100 µM (inactive)
SR
  GI50: > 100 µM (inactive)
MDA-MB-231
  GI50: > 100 µM (inactive)
Hs-578T
  GI50: > 100 µM (inactive)
RPMI-8226
  GI50: > 100 µM (inactive)
TK-10
  GI50: > 100 µM (inactive)
EKVX
  GI50: > 100 µM (inactive)
K562
  GI50: > 100 µM (inactive)
A549
  GI50: > 100 µM (inactive)
MCF7
  GI50: > 100 µM (inactive)
SF-268
  GI50: > 100 µM (inactive)
SF-295
  GI50: > 100 µM (inactive)
U-251
  GI50: > 100 µM (inactive)
